Source: US20260283149A1, “DEVELOPMENT AND APPLICATION OF SYNTHETIC INHIBITORS OF PHOTOSYNTHESIS” (University of Florida Research Foundation, Incorporated, priority 2023, published 2026)

Tests used:
[1] = system: Synechocystis sp. PCC6803 cells; assay: Growth inhibition of Synechocystis sp. PCC 6803 in liquid BG-11 medium; format: cell-based; details: for inhibitory activity on growth of Synechocystis sp. PCC6803 cells (overall grade): tested at 10 and 25 microM; for growth inhibition of Synechocystis sp. PCC6803 cells: liquid BG-11 medium with glucose, growth monitored at 700 nm
Experimental: (§1) FIG. 11. Growth inhibition of Arabidopsis and Synechocystis by duroquinone, the unprenylated structural analogue of methyl-plastoquinone-9. (A) Structure of duroquinone. (B) Seven-day-old Arabidopsis plants (Col-0) grown on MS medium containing 1% sucrose (w/v) and 0, 10, 25, 50, or 100 μM duroquinone in 12-hour days (110 μE m^−2 s^−1) at 22° C. (C) Growth curve of Synechocystis sp. PCC 6803 at 30° C. in liquid BG-11 medium containing glucose, and with or without duroquinone. Data are means of three biological replicates±SE. Asterisks indicate significant differences (0 μM vs. 10 μM duroquinone) as determined by Fisher's test (p<α=0.05) from an analysis of variance.
FIG. 13. Growth inhibition of Synechocystis sp. PCC 6803 by structural analogues of methyl-plastoquinone-9. Synechocystis sp. PCC6803 cells were grown in liquid BG-11 medium containing […] (80 μE m^−2 s^−1; 24-hour days; 30° C.). Cell growth was monitored spectrophotometrically at 700 nm.
FIG. 15. Growth curve of Synechocystis treated with analogues grown photomixotrophically and photoautotrophically. Wild-type Synechocystis was grown in BG-11 and either with 5 mM glucose for photomixotrophic or w/o for photoautotrophic with treatment of either 0, 10 or 25 μM of the corresponding methylplastoquinone analog w/ 0.095% EtOH final and grown at a continuous light intensity of 50μ photons m^−2s^−1 at 30° C. with shaking 125 rpm. Data are means of 2 biological replicates ±SD.
Several analogues of Methylplastoquinone (FIG. 14) were tested for their ability to act as herbicides. Synechocystis were grown photomixotrophically (BG-11 plus 5 mM glucose) and photoautotrophically (BG-11 without glucose) at a continuous light intensity of 50μ photons m^−2s^−1 at 30° C. with shaking 125 rpm. The cultures were further treated with 0, 10, or 25 μM Doruquinone (DQ), 2,6-dimethly-1,4-benzoquinone (DMBQ), 2,6-dimethoxy-1,4-benzoquinone (DMOBQ), 2,6-dichloro-1,4-benzoquinone (DCBQ), or 2-chloro-1,4-benzoquinone (CBQ), each with […] ethanol.

[2] = system: Arabidopsis; assay: Accumulation of methyl-plastoquinone-9 in dexamethasone-induced plastid-targeted COQ5 Arabidopsis transgenics; format: in vivo, Arabidopsis thaliana; details: transgenics are seedling lethal
[3] = system: Synechocystis; assay: Accumulation of methyl-plastoquinone-9 in COQ5-expressing Synechocystis DPhQ-MT knockout cells; format: cell-based, Synechocystis sp. PCC 6803; details: especially when cultured photoautotrophically; clones evolve suppressor mutations in COQ5
Description: For expression in Synechocystis, gene sll1653 and N-terminally truncated versions of At5g57300 (S23→M23) and At1g23360 (V28→M28) cDNAs were PCR amplified using primers that contained the NdeI(5′) and BglII(3′) restriction sites. PCR fragments were cloned into NdeI/BglII-digested pSynExp-2 expression vector (Sattler S E et al. “Characterization of tocopherol cyclases from higher plants and cyanobacteria. Evolutionary implications for tocopherol synthesis and function.” Plant Physiol. 132, 2184-2195 (2003)), and the resulting constructs were introduced into Synechocystis Δsll1653::aadA knockout cells (Lohmann A et al. 2006). Transformed cells were selected on BG-11 plates containing and chloramphenicol ([…]), and spectinomycin (15 μg/ml) at 22° C. in 12-hour days (70 μE m^−2s^−1). […] Induction and analyses of chlorophyll fluorescence were performed on one month-old dark-adapted plants using a FluorCam 800 MF imaging system (Photon Systems Instruments).
To further investigate why clade 2 C-methyltransferases evolved strict substrate preference, the effect of replacing cognate cyanobacterial and plastid-targeted DPhQ-MT with a bifunctional COQ5 counterpart was examined. […] These constructs were then introduced into a Synechocystis DPhQ-MT knockout strain and the growth of individual clones was scored via serial dilution assays (FIG. 3 A-B).

[4] = system: Arabidopsis; assay: Growth of Arabidopsis plants on MS medium containing the compound; format: in vivo, Arabidopsis thaliana (Col-0); details: 1% sucrose, 10-100 μM, applied at 2 to 50 times lower concentrations than standard herbicides such as DCMU or glyphosate
Experimental: as §1
Ten day-old Arabidopsis plants (Col-0) were grown on MS medium containing 1% sucrose (w/v), 0.095% EtOH, and 0, 10, 25, 50 or 100 μM methyl-plastoquinone analogues in 12-h days (photon flux of 110 μmol m^−2s^−1) at 22° C.

| SMILES | inhibitory activity on growth of Synechocystis sp. PCC6803 cells (overall grade) [1] | growth inhibition of Synechocystis sp. PCC6803 cells ([1]; 25 microM) | growth inhibition of Synechocystis sp. PCC6803 cells ([1]; 10 microM) | also measured |
| --- | --- | --- | --- | --- |
| COC1=CC(=O)C=C(OC)C1=O [2,6-dimethoxy-1,4-benzoquinone] | low to marginal inhibitory activity | – | – | – |
| CC1=CC(=O)C=C(C)C1=O [2,6-dimethyl-1,4-benzoquinone] | intermediate inhibitory activity | complete growth inhibition | – | – |
| CC(C)=CCCC(C)=CCCC(C)=CCCC(C)=CCCC(C)=CCCC(C)=CCCC(C)=CCCC(C)=CCC/C(C)=C/CC1=C(C)C(=O)C(C)=C(C)C1=O [methyl-plastoquinone-9] | – | – | – | toxicity of accumulation in Arabidopsis COQ5 transgenics [2]: acutely toxic; toxicity of accumulation in Synechocystis COQ5 transformants [3]: acutely toxic |
| O=C1C=C(Cl)C(=O)C(Cl)=C1 [2,6-dichloro-1,4-benzoquinone] | low to marginal inhibitory activity | – | – | – |
| O=C1C=CC(=O)C(Cl)=C1 [2-chloro-1,4-benzoquinone] | as effective as duroquinone | complete growth inhibition | complete growth inhibition | – |
| CC1=C(C)C(=O)C(C)=C(C)C1=O [duroquinone] | – | complete growth inhibition | complete growth inhibition | toxicity in Arabidopsis [4]: marked toxicity |
